# Experimental data taken from PubChem BioAssay (NCI).
#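 Interpolation was linear, between the two tested concentrations surrounding the appropriate level; five concentrations were tested over 48 hours in 96-well plates. TGI denotes the concentration required for complete inhibition of growth.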
# How the values were obtained:
# Experiment in all cases: NCI tumour cell line growth inhibition, 48 h
# SNB-75 CNS = tested on: SNB-75 CNS
# SF-295 CNS = tested on: SF-295 CNS
# UACC-257 melanoma = tested on: UACC-257 melanoma
# LXFL 529 NSCLC = tested on: LXFL 529 NSCLC
# MOLT-4 leukemia = tested on: MOLT-4 leukemia
# MDA-MB-231 breast = tested on: MDA-MB-231 breast
# UO-31 renal = tested on: UO-31 renal
# TK-10 renal = tested on: TK-10 renal
# HCT-15 colon = tested on: HCT-15 colon
# HT29 colon = tested on: HT29 colon
# MALME-3M melanoma = tested on: MALME-3M melanoma
# SK-MEL-28 melanoma = tested on: SK-MEL-28 melanoma
# SF-539 CNS = tested on: SF-539 CNS
# HCC-2998 colon = tested on: HCC-2998 colon
# XF 498 CNS = tested on: XF 498 CNS
# T-47D breast = tested on: T-47D breast
# U251 CNS = tested on: U251 CNS
# A498 renal = tested on: A498 renal
# RXF 393 renal = tested on: RXF 393 renal
# SNB-19 CNS = tested on: SNB-19 CNS
# PC-3 prostate = tested on: PC-3 prostate
# SR leukemia = tested on: SR leukemia
# ACHN renal = tested on: ACHN renal
# SNB-78 CNS = tested on: SNB-78 CNS
# HOP-62 NSCLC = tested on: HOP-62 NSCLC
# MCF7 breast = tested on: MCF7 breast
# SK-MEL-2 melanoma = tested on: SK-MEL-2 melanoma
# NCI-H226 lung = tested on: NCI-H226 lung
# SF-268 CNS = tested on: SF-268 CNS
# A549 NSCLC = tested on: A549 NSCLC
# 786-0 renal = tested on: 786-0 renal
# RPMI-8226 leukemia = tested on: RPMI-8226 leukemia
# CCRF-CEM leukemia = tested on: CCRF-CEM leukemia
# DLD-1 colon = tested on: DLD-1 colon
# IGROV1 ovarian = tested on: IGROV1 ovarian
# NCI-H23 lung = tested on: NCI-H23 lung
# K-562 leukemia = tested on: K-562 leukemia
# M19-MEL melanoma = tested on: M19-MEL melanoma
# HOP-18 NSCLC = tested on: HOP-18 NSCLC
# LOX IMVI melanoma = tested on: LOX IMVI melanoma
# DMS 273 small cell lung = tested on: DMS 273 small cell lung
# UACC-62 melanoma = tested on: UACC-62 melanoma
# NCI-H522 lung = tested on: NCI-H522 lung
# HL-60(TB) leukemia = tested on: HL-60(TB) leukemia
# COLO 205 colon = tested on: COLO 205 colon
# OVCAR-5 ovarian = tested on: OVCAR-5 ovarian
# HOP-92 NSCLC = tested on: HOP-92 NSCLC
# M14 melanoma = tested on: M14 melanoma
# SK-OV-3 ovarian = tested on: SK-OV-3 ovarian
# SK-MEL-5 melanoma = tested on: SK-MEL-5 melanoma
# HS 578T breast = tested on: HS 578T breast
# KM12 colon = tested on: KM12 colon
# HCT-116 colon = tested on: HCT-116 colon
# RXF-631 renal = tested on: RXF-631 renal
# KM20L2 colon = tested on: KM20L2 colon
# MDA-N = tested on: MDA-N
# DU-145 prostate = tested on: DU-145 prostate
# CAKI-1 renal = tested on: CAKI-1 renal
# MDA-MB-435 = tested on: MDA-MB-435
# OVCAR-3 ovarian = tested on: OVCAR-3 ovarian
# DMS 114 small cell lung = tested on: DMS 114 small cell lung
# EKVX NSCLC = tested on: EKVX NSCLC
# OVCAR-8 ovarian = tested on: OVCAR-8 ovarian
# OVCAR-4 ovarian = tested on: OVCAR-4 ovarian
# SW-620 colon = tested on: SW-620 colon
# SN12C renal = tested on: SN12C renal
# BT-549 breast = tested on: BT-549 breast
# NCI-H460 lung = tested on: NCI-H460 lung
smiles,measurement,setting,value
COc1ccccc1NC(=O)C1=C(C)NC(C)=C(C(=O)Nc2ccccc2OC)C1c1ccco1,TGI,SNB-75 CNS,29.7 µM
same,TGI,SF-295 CNS,> 44.2 µM
same,TGI,UACC-257 melanoma,43.4 µM
same,TGI,LXFL 529 NSCLC,> 100 µM
same,TGI,MOLT-4 leukemia,52.7 µM
same,TGI,MDA-MB-231 breast,> 100 µM
same,TGI,UO-31 renal,> 83.5 µM
same,TGI,TK-10 renal,> 79.7 µM
same,TGI,HCT-15 colon,> 100 µM
same,TGI,HT29 colon,14.7 µM
same,TGI,MALME-3M melanoma,> 100 µM
same,TGI,SK-MEL-28 melanoma,> 92 µM
same,TGI,SF-539 CNS,20.7 µM
same,TGI,HCC-2998 colon,40.7 µM
same,TGI,XF 498 CNS,> 100 µM
same,TGI,T-47D breast,> 100 µM
same,TGI,U251 CNS,47 µM
same,TGI,A498 renal,38.4 µM
same,TGI,RXF 393 renal,10.6 µM
same,TGI,SNB-19 CNS,67.6 µM
same,TGI,PC-3 prostate,> 100 µM
same,TGI,SR leukemia,15.3 µM
same,TGI,ACHN renal,> 100 µM
same,TGI,SNB-78 CNS,> 100 µM
same,TGI,HOP-62 NSCLC,74.6 µM
same,TGI,MCF7 breast,> 100 µM
same,TGI,SK-MEL-2 melanoma,31.4 µM
same,TGI,NCI-H226 lung,33.1 µM
same,TGI,SF-268 CNS,> 97.3 µM
same,TGI,A549 NSCLC,> 100 µM
same,TGI,786-0 renal,> 77 µM
same,TGI,RPMI-8226 leukemia,76.1 µM
same,TGI,CCRF-CEM leukemia,59.8 µM
same,TGI,DLD-1 colon,> 100 µM
same,TGI,IGROV1 ovarian,> 100 µM
same,TGI,NCI-H23 lung,32.4 µM
same,TGI,K-562 leukemia,> 63.5 µM
same,TGI,M19-MEL melanoma,> 100 µM
same,TGI,HOP-18 NSCLC,73.9 µM
same,TGI,LOX IMVI melanoma,> 100 µM
same,TGI,DMS 273 small cell lung,> 100 µM
same,TGI,UACC-62 melanoma,22.9 µM
same,TGI,NCI-H522 lung,8.6 µM
same,TGI,HL-60(TB) leukemia,8.51 µM
same,TGI,COLO 205 colon,23 µM
same,TGI,OVCAR-5 ovarian,> 100 µM
same,TGI,HOP-92 NSCLC,24.2 µM
same,TGI,M14 melanoma,31.9 µM
same,TGI,SK-OV-3 ovarian,> 76.3 µM
same,TGI,SK-MEL-5 melanoma,15.4 µM
same,TGI,HS 578T breast,9 µM
same,TGI,KM12 colon,> 38.4 µM
same,TGI,HCT-116 colon,37.4 µM
same,TGI,RXF-631 renal,> 92.6 µM
same,TGI,KM20L2 colon,13 µM
same,TGI,MDA-N,> 100 µM
same,TGI,DU-145 prostate,> 100 µM
same,TGI,CAKI-1 renal,> 24.1 µM
same,TGI,MDA-MB-435,19.8 µM
same,TGI,OVCAR-3 ovarian,9.02 µM
same,TGI,DMS 114 small cell lung,7.53 µM
same,TGI,EKVX NSCLC,> 83.7 µM
same,TGI,OVCAR-8 ovarian,> 100 µM
same,TGI,OVCAR-4 ovarian,88.2 µM
same,TGI,SW-620 colon,> 100 µM
same,TGI,SN12C renal,89.9 µM
same,TGI,BT-549 breast,> 100 µM
same,TGI,NCI-H460 lung,> 43.9 µM
CCN(c1ccccc1)[C@H]1C(=O)N(c2ccc([N+](=O)[O-])cc2)[C@H]1c1ccc(OC)cc1,TGI,SNB-75 CNS,> 100 µM
same,TGI,SF-295 CNS,> 100 µM
same,TGI,UACC-257 melanoma,> 100 µM
same,TGI,LXFL 529 NSCLC,> 100 µM
same,TGI,MOLT-4 leukemia,> 100 µM
same,TGI,UO-31 renal,> 100 µM
same,TGI,TK-10 renal,> 100 µM
same,TGI,HT29 colon,> 100 µM
same,TGI,MALME-3M melanoma,> 100 µM
same,TGI,SK-MEL-28 melanoma,> 100 µM
same,TGI,SF-539 CNS,> 100 µM
same,TGI,HCC-2998 colon,> 100 µM
same,TGI,U251 CNS,> 100 µM
same,TGI,A498 renal,> 100 µM
same,TGI,RXF 393 renal,> 100 µM
same,TGI,SNB-19 CNS,> 100 µM
same,TGI,SR leukemia,> 100 µM
same,TGI,ACHN renal,> 100 µM
same,TGI,SNB-78 CNS,> 100 µM
same,TGI,SK-MEL-2 melanoma,> 100 µM
same,TGI,NCI-H226 lung,> 100 µM
same,TGI,SF-268 CNS,> 100 µM
same,TGI,A549 NSCLC,> 100 µM
same,TGI,786-0 renal,> 100 µM
same,TGI,RPMI-8226 leukemia,> 100 µM
same,TGI,CCRF-CEM leukemia,> 100 µM
same,TGI,DLD-1 colon,> 100 µM
same,TGI,IGROV1 ovarian,> 100 µM
same,TGI,NCI-H23 lung,> 100 µM
same,TGI,K-562 leukemia,> 100 µM
same,TGI,M19-MEL melanoma,> 100 µM
same,TGI,DMS 273 small cell lung,> 100 µM
same,TGI,UACC-62 melanoma,> 100 µM
same,TGI,NCI-H522 lung,> 100 µM
same,TGI,HL-60(TB) leukemia,> 100 µM
same,TGI,COLO 205 colon,> 100 µM
same,TGI,OVCAR-5 ovarian,> 100 µM
same,TGI,HOP-92 NSCLC,81.8 µM
same,TGI,SK-OV-3 ovarian,> 100 µM
same,TGI,SK-MEL-5 melanoma,> 100 µM
same,TGI,KM12 colon,> 100 µM
same,TGI,HCT-116 colon,> 100 µM
same,TGI,RXF-631 renal,> 100 µM
same,TGI,CAKI-1 renal,> 100 µM
same,TGI,OVCAR-3 ovarian,> 100 µM
same,TGI,DMS 114 small cell lung,> 100 µM
same,TGI,EKVX NSCLC,> 100 µM
same,TGI,OVCAR-8 ovarian,> 100 µM
same,TGI,SW-620 colon,> 100 µM
same,TGI,SN12C renal,> 100 µM
same,TGI,NCI-H460 lung,> 100 µM
